The values that follow come from US20100196357A1, “Microrna modulators and method for identifying and using the same” (priority 2008, published 2010).

SMILES strings stand for the structures.

The experiment concerns miR-21. The experiment is described as follows: high throughput screen for compounds that modulate miR-21. Format: cell-based. As to conditions: Homo sapiens; Tables 4-12. An excerpt:
This example describes a high throughput screening assay to identify small organic molecules that perturb the miRNA process. These active small molecules can be used as novel chemical tools to better understand miRNA functions and the molecular mechanisms of miRNA biogenesis. Moreover, miRNA inhibitors can be potentially developed into new therapeutics, including anticancer and antiviral agents. The high throughput assay is composed of a two-stage screening protocol, including of a primary screen to identify potential lead compounds from small molecule collections, and a secondary screen to evaluate and characterize the primary actives and to obtain a detailed structure-activity relationship (SAR).
Primary miR-21 Assay. The primary miR-21 FLuc reporter assay is carried out with HeLa cells expressing the Luc-miR-21 reporter using a 48-hour incubation time. Active compounds that increase the luciferase response are identified based upon inhibition of miR-21.
SAR. The concentration-response data for the entire high throughput screen is plotted and modeled by a four parameter logistic fit and SAR analysis is performed according to conventional approaches (Iglese, et al. (2006) Proc. Natl. Acad. Sci. USA 130:11473-8). In brief, Class 1.1 and 1.2 are full curves containing upper and lower asymptotes with efficacy ≧80% and <80%, respectively. […]

As to `C/C(=N\NC(=O)c1cccs1)c1ccncc1`, the activity was half-maximal at 7.36 µM (AC50).

Turning to `COc1ccc2c(c1)CC(C)C/C2=N\NC(=O)c1ccco1` (centres unmarked), the half-maximal activity concentration (AC50) amounted to 16.5 µM.
